What is called Kd is the free concentration of one partner at which half of the binding sites on the other are occupied at equilibrium, for simple one-to-one binding. Low values mean tighter binding, high ones weaker binding.

Data on 1 molecule can be found in paper PMC11878095, “Interspecies signaling modulates the biosynthesis of antimicrobial secondary metabolites related to biological control activities of Pseudomonas fluorescens 2P24” (Microbiology Spectrum, 2025).

The test concerns the target T1, PhlH (2P24_PhlH) (Pseudomonas fluorescens, UniProt Q4JIX5).
T1 construct: purified recombinant His6-tagged PhlH
The test is described as follows: ITC ([…] °C, one-site model); EMSA shows PLT releases PhlH from phlG promoter DNA. Format: binding.

T1 sequence (Q4JIX5 entry or part of it): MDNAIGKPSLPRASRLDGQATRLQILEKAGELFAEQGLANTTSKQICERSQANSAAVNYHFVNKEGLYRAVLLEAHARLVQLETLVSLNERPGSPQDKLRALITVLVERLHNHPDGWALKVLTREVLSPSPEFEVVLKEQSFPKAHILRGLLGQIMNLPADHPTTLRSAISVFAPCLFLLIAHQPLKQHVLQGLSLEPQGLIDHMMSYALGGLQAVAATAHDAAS

The molecule `O=C(c1cc(Cl)c(Cl)[nH]1)c1c(O)cccc1O` [PLT, pyoluteorin] registered a Kd of 1 µM.
